Data: publication PMC6009973 (Journal of Enzyme Inhibition and Medicinal Chemistry, 2017)

Molecular target: T1, CpeCA (Clostridium perfringens, UniProt A0A0H2YPC2)
T1 construct: gene CPF_0414
Conditions: read-out: CpeCA^bβ; CO2 1.7-17 mM, 20 mM TRIS pH 8.3, 20 mM Na2SO4, 15 min pre-incubation at room temperature; errors 5-10%

T1 sequence (A0A0H2YPC2 1-190): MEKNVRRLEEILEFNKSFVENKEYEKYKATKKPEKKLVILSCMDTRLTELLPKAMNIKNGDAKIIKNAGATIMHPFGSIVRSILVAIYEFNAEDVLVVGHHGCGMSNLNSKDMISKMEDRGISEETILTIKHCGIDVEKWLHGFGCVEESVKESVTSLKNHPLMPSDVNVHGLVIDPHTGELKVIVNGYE

For `NS(=O)(=O)c1ccc(N2CCCCS2(=O)=O)cc1` [SLT, sulthiame], the Ki was 63.1 nM.

`NS(=O)(=O)c1cc(Cl)c(Cl)c(S(N)(=O)=O)c1` [DCP, dichlorophenamide] showed a Ki of 68 nM.

`Cc1onc(-c2ccccc2)c1-c1ccc(S(N)(=O)=O)cc1` [VLX, valdecoxib] showed a Ki of 160 nM.

In the case of `NS(=O)(=O)c1ccc(S(=O)(=O)Nc2cccc3c(Cl)c[nH]c23)cc1` [IND, indisulam], the Ki is reported as 173 nM.

`CC1(C)O[C@@H]2[C@@H](CO[C@@]3(COS(N)(=O)=O)OC(C)(C)O[C@@H]23)O1` [TPM, topiramate] gave a Ki of 204 nM.

Molecule `NS(=O)(=O)c1cc2c(cc1Cl)NCNS2(=O)=O` [HCT, hydrochlorothiazide] has a Ki of 219 nM.

`NS(=O)(=O)Cc1noc2ccccc12` [ZNS, zonisamide] showed a Ki of over 100000 nM.

For `CCN1CCCC1CNC(=O)c1cc(S(N)(=O)=O)ccc1OC` (centres unmarked) [SLP, sulpiride], the Ki was 389 nM.

Molecule `O=C1NS(=O)(=O)c2ccccc21` [SAC, saccharin] has a Ki of over 100000 nM.

`Cc1ccc(-c2cc(C(F)(F)F)nn2-c2ccc(S(N)(=O)=O)cc2)cc1` [CLX, celecoxib] showed a Ki of 312 nM.

For `NS(=O)(=O)c1ccc(CCNS(=O)(=O)c2ccc([N+](=O)[O-])cc2CO)cc1` [compound 24, 4-(2-hydroxymethyl-4-nitrophenyl-sulphonamido)ethylbenzenesulphonamide], the Ki was 51.2 nM.

For `CC(=O)N=c1sc(S(N)(=O)=O)nn1C` [MZA, methazolamide], the Ki was 113 nM.

With `NS(=O)(=O)c1nnc(NS(=O)(=O)c2ccccc2)s1` [BZA, benzolamide] the Ki was 497 nM.

In the case of `CCN[C@H]1CN(CCCOC)S(=O)(=O)c2sc(S(N)(=O)=O)cc21` [BRZ, brinzolamide], the Ki is reported as 121 nM.
